{"source": "patent US4080454A", "about": "“5-M-Tolyloxyuracil, anti-ulcer agent” (priority 1976, dated 1978)", "key": {"[1]": {"tested_on": "FUDR phosphorylase", "details": "J. Med. Chem., 13, 461 (1970); cited from earlier work"}, "[2]": {"tested_on": "thymidine phosphorylase", "details": "J. Med. Chem., 14, 812 (1971); cited from earlier work"}, "[3]": {"details": "literature; cited from earlier work"}, "[4]": {"test": "Metabolism of 5-(m-methylphenoxy)-2-(1H)pyrimidinone / 5-m-tolyloxyuracil in rats (C2 radiolabel)", "format": "in vivo"}, "[5]": {"tested_on": "stress induced gastric ulceration", "test": "Cold-restraint stress induced gastric ulceration (antiulcer activity)", "format": "in vivo, female rats", "details": "for % incidence of lesions / Number of lesions: 3 h before stress; for Number of lesions: total in group", "protocol": "In order to test the antiulcer activity of 5-m-tolyloxyuracil, stress induced gastric ulceration was produced by immobilizing non-fasted, female rats in a supine position and placing them in a refrigerator at 12° C. for 3 hours. Experimental drugs were administered 3 hours before the initiation of the cold-restraint stress period. At the conclusion of the stress period, the rats were sacrificed, their stomachs inflated with 5 ml of water and removed. The isolated stomachs were placed in a 4 percent aqueous solution of formaldehyde to stiffen the serosal side of the inflated stomach. This procedure facilitates examination of the stomach which is accomplished by slitting the stomach along its greater curvature and noting the number and incidence of gastric lesions. Both control and experimental drug groups consisted of ten rats. A significant reduction in the number and incidence of gastric lesions characterizes antiulcer agents.\nThe table below compares 5-m-tolyoxyuracil (Compound A) with 5-m-tolyloxy-2-thiouracil (Compound B), Carbenoxolone-Na (Compound C), and 5-(m-methylphenoxy)-2(1H)-pyrimidinone (Compound D).\nPercent incidence of lesions is defined as follows. [formula] Number of lesions is the total number of lesions in the experimental group."}, "[6]": {"test": "Plasma pharmacokinetics in human subjects", "format": "in vivo", "protocol": "(§1) In man, using single doses of 400 to 700 mg of 5-(m-methylphenoxy)-2-(1H)pyrimidinone, this drug had declined below the level of detectability by 2 hours post dose.\nIn our studies in animals and man we have never been able to isolate 5-m-tolyloxyuracil in substantially pure form. Rather we have obtained samples of urine and blood plasma from animals and man consisting of a multitude of natural components, one of which we have identified as 5-m-tolyloxyuracil by comparison of its physical properties with material prepared in substantially pure form by the synthesis described in the present application. Indeed, in samples of plasma from human subjects treated with 5-m-tolyloxy-2(1H)pyrimidinone we have only detected peak levels of 5-m-tolyloxyuracil at the very low concentration of 40 ug/ml. When we say \"in substantially pure form\", we mean a purity of 95% or greater."}, "[7]": {"test": "Metabolism of 5-(m-methylphenoxy)-2-(1H)pyrimidinone / 5-m-tolyloxyuracil in monkeys (C2 radiolabel)", "format": "in vivo"}, "[8]": {"tested_on": "experimentally-induced gastric ulceration", "details": "animals; cited from earlier work"}, "[9]": {"tested_on": "gastric ulcer", "details": "human gastric ulcer patients; cited from earlier work"}, "[10]": {"test": "Metabolic conversion in human subjects", "format": "in vivo", "protocol": "as §1"}, "[11]": {"test": "Search for other metabolic modifications of 5-(m-methylphenoxy)-2-(1H)pyrimidinone", "design": "species or system rats, monkeys and human subjects", "details": "in vivo", "protocol": "U.S. Pat. No. 3,922,345 discloses the method of treating peptic ulcers which comprises administering to a subject afflicted therewith a daily dose of about 0.60 to 21 mg per kg. of body weight of 5-(m-methylphenoxy)-2-(1H)-pyrimidinone. […] We have been unable to detect metabolic products resulting from (1) phenoxy ring hydroxylation, (2) oxidation of the m-methyl group or (3) ether cleavage."}, "[12]": {"details": "endogenously generated 5-m-tolyloxyuracil"}, "[13]": {"details": "rats, cold-restraint stress, doses of the table"}}, "note": "Entries after “also recorded” stand apart in the source; their conditions may differ."}
{"compound": "O=c1[nH]cc(Oc2ccccc2)c(=O)[nH]1", "note": "[5-Phenoxyuracil]", "values": [{"measurement": "inhibition of FUDR phosphorylase", "setting": "[1]", "result": "poor activity"}, {"measurement": "inhibition of thymidine phosphorylase", "setting": "[2]", "result": "poor activity"}]}
{"compound": "O=c1[nH]cc(F)c(=O)[nH]1", "note": "[5-fluorouracil]", "values": [{"measurement": "metabolic conversion / degradation", "setting": "[3]", "result": "metabolically converted to 5,6-dihydrouracils which undergo ring opening with subsequent loss of the C2 pyrimidine carbon as carbon dioxide; also recorded: undergoes a reduction of the 5,6-double bond to give a 5,6-dihydrouracil which subsequently undergoes ring opening to an N-acetamido βalanine which then loses the C-2 pyrimidine carbon as carbon dioxide"}]}
{"compound": "Cc1cccc(Oc2c[nH]c(=O)[nH]c2=O)c1", "note": "[Compound A, 5-m-tolyloxyuracil]", "values": [{"measurement": "metabolic degradation (ring opening, loss of C2 as carbon dioxide)", "setting": "[4]; [12]", "result": "does not undergo this metabolic degradation; also recorded: no appriciable quantities of radioactive CO2 were observed"}, {"measurement": "% incidence of lesions", "setting": "[5]; 32 mg/kg ip, control 100", "result": 56, "unit": "%"}, {"measurement": "Number of lesions", "setting": "[5]; 32 mg/kg ip, control 58", "result": 19}, {"measurement": "% incidence of lesions", "setting": "[5]; 50 mg/kg ip, control 100", "result": 70, "unit": "%"}, {"measurement": "Number of lesions", "setting": "[5]; 50 mg/kg ip, control 58", "result": 34}, {"measurement": "antiulcer activity (in words)", "setting": "[5]; [13]", "result": "effective antiulcer agents at both doses tested since the number and incidence of lesions following drug treatment are significantly lower (P value < 0.05) than in controls"}, {"measurement": "antiulcer activity (in words)", "setting": "[5]; rats, cold-restraint stress, doses of the table, listed as 5-m-tolyloxyuracil", "result": "protects rats against ulceration"}, {"measurement": "plasma half life compared with 5-(m-methylphenoxy)-2-(1H)pyrimidinone", "setting": "[6]; human subjects", "result": "much longer plasma half life; also recorded: much longer plasma half-life"}, {"measurement": "peak plasma concentration compared with parent drug", "setting": "[6]; human, endogenously generated after single 400 to 700 mg doses of 5-(m-methylphenoxy)-2-(1H)pyrimidinone", "result": "peak concentrations greater than that of parent drug"}, {"measurement": "metabolic degradation (ring opening, loss of C2 as carbon dioxide)", "setting": "[7]; [12]", "result": "does not undergo this metabolic degradation; also recorded: no appriciable quantities of radioactive CO2 were observed"}]}
{"compound": "Cc1cccc(Oc2c[nH]c(=S)[nH]c2=O)c1", "note": "[Compound B, 5-m-tolyloxy-2-thiouracil]", "values": [{"measurement": "% incidence of lesions", "setting": "[5]; 10 mg/kg po, control 80", "result": 80, "unit": "%"}, {"measurement": "Number of lesions", "setting": "[5]; 10 mg/kg po, control 31", "result": 50}, {"measurement": "antiulcer activity (in words)", "setting": "[5]; [13]", "result": "inactive"}]}
{"compound": "CC1(C(=O)O)CCC2(C)CCC3(C)C(=CC(=O)C4C5(C)CCC(OC(=O)CCC(=O)O)C(C)(C)C5CCC43C)C2C1", "note": "(stereo not shown) [Compound C, Carbenoxolone-Na]", "values": [{"measurement": "antiulcer activity (in words)", "setting": "[5]; 32 mg/kg", "result": "less active at 32 mg/kg at which dose the activity is not significant at the P = 0.05 level"}, {"measurement": "% incidence of lesions", "setting": "[5]; 32 mg/kg ip, control 50", "result": 40, "unit": "%"}, {"measurement": "Number of lesions", "setting": "[5]; 32 mg/kg ip, control 15", "result": 9}, {"measurement": "antiulcer activity (in words)", "setting": "[5]; 60 mg/kg", "result": "significantly active (P < 0.05)"}, {"measurement": "% incidence of lesions", "setting": "[5]; 60 mg/kg ip, control 65", "result": 25, "unit": "%"}, {"measurement": "Number of lesions", "setting": "[5]; 60 mg/kg ip, control 24", "result": 7}, {"measurement": "protection from experimentally-induced gastric ulceration", "setting": "[8]", "result": "known to protect animals from experimentally-induced gastric ulceration"}, {"measurement": "gastric antiulcer efficacy in clinical trials", "setting": "[9]", "result": "effective gastric antiulcer agent"}]}
{"compound": "Cc1cccc(Oc2cnc(=O)[nH]c2)c1", "note": "[Compound D, 5-(m-methylphenoxy)-2(1H)-pyrimidinone]", "values": [{"measurement": "metabolic conversion to 5-m-tolyloxyuracil", "setting": "[4]", "result": "rapidly and efficiently metabolically converted to 5-m-tolyloxyuracil"}, {"measurement": "% incidence of lesions", "setting": "[5]; 10 mg/kg ip, control 90", "result": 60, "unit": "%"}, {"measurement": "Number of lesions", "setting": "[5]; 10 mg/kg ip, control 42", "result": 12}, {"measurement": "% incidence of lesions", "setting": "[5]; 32 mg/kg ip, control 90", "result": 40, "unit": "%"}, {"measurement": "Number of lesions", "setting": "[5]; 32 mg/kg ip, control 34", "result": 13}, {"measurement": "antiulcer activity (in words)", "setting": "[5]; [13]", "result": "effective antiulcer agents at both doses tested since the number and incidence of lesions following drug treatment are significantly lower (P value < 0.05) than in controls"}, {"measurement": "time post dose to decline below the level of detectability", "setting": "[6]; human, single doses of 400 to 700 mg", "result": "≤ 2", "unit": "h"}, {"measurement": "metabolic conversion to 5-m-tolyloxyuracil", "setting": "[7]", "result": "rapidly and efficiently metabolically converted to 5-m-tolyloxyuracil"}, {"measurement": "metabolic conversion to 5-m-tolyloxyuracil", "setting": "[10]", "result": "rapidly and efficiently metabolically converted to 5-m-tolyloxyuracil"}, {"measurement": "other metabolic modifications (phenoxy ring hydroxylation, m-methyl oxidation, ether cleavage)", "setting": "[11]", "result": "do not occur to any detectable extent"}]}
